# Experimental data published in ChEMBL document CHEMBL3885881, “DrugMatrix”.
# Species: Rattus norvegicus
# Assay: DrugMatrix - Regimen: Daily Repeat
# Assay type: toxicity, organism-based, Sprague-Dawley
# Parameters: regimen Daily Repeat, gender Male, age 6-8 weeks
# Conditions: in vivo, iv, vehicle 100 % SALINE; for ABSOLUTE BASOPHIL / ABSOLUTE EOSINOPHIL / ABSOLUTE LYMPHOCYTE / ABSOLUTE MONOCYTE / ABSOLUTE SEGMENTED NEUTROPHIL / BASOPHIL / EOSINOPHIL / ERYTHROCYTE COUNT / HEMATOCRIT / HEMOGLOBIN / LEUKOCYTE COUNT / LYMPHOCYTE / MEAN CORPUSCULAR HEMOGLOBIN / MEAN CORPUSCULAR HEMOGLOBIN CONCENTRATION / MEAN CORPUSCULAR VOLUME / MONOCYTE / NEUTROPHIL / NUCLEATED RED BLOOD CELLS / PLATELET COUNT: tissue Blood; for ALANINE AMINOTRANSFERASE / ALBUMIN / ALKALINE PHOSPHATASE / ASPARTATE AMINOTRANSFERASE / BLOOD UREA NITROGEN / CARBON DIOXIDE / CHLORIDE / CHOLESTEROL / CREATINE PHOSPHOKINASE / CREATININE / GLUCOSE / LACTATE DEHYDROGENASE / LIPASE / PHOSPHORUS / POTASSIUM / SODIUM / TOTAL BILIRUBIN / TOTAL PROTEIN / URIC ACID: tissue Plasma
# [1] = 100 mg/kg, 72 h, dose level Low, time 3 day
# [2] = 100 mg/kg, 120 h, dose level Low, time 5 day
# [3] = 755 mg/kg, 72 h, dose level High, time 3 day
# [4] = 755 mg/kg, 120 h, dose level High, time 5 day
smiles,measurement,setting,value
O=S(=O)([O-])CCS.[Na+] [MESNA],ABSOLUTE BASOPHIL,[1],0 CELLS/uL
same,ABSOLUTE EOSINOPHIL,[1],43.67 CELLS/uL
same,ABSOLUTE LYMPHOCYTE,[1],13323 CELLS/uL
same,ABSOLUTE MONOCYTE,[1],251.67 CELLS/uL
same,ABSOLUTE SEGMENTED NEUTROPHIL,[1],848.33 CELLS/uL
same,BASOPHIL,[1],0%
same,EOSINOPHIL,[1],0.33%
same,ERYTHROCYTE COUNT,[1],6 x10E6/uL
same,HEMATOCRIT,[1],37.23%
same,HEMOGLOBIN,[1],13.77 G/DL
same,LEUKOCYTE COUNT,[1],14.47 x10E3/uL
same,LYMPHOCYTE,[1],92%
same,MEAN CORPUSCULAR HEMOGLOBIN,[1],22.97 pg
same,MEAN CORPUSCULAR HEMOGLOBIN CONCENTRATION,[1],36.97 G/DL
same,MEAN CORPUSCULAR VOLUME,[1],62.07 fL
same,MONOCYTE,[1],1.67%
same,NEUTROPHIL,[1],6%
same,NUCLEATED RED BLOOD CELLS,[1],0.67 /100WBC
same,PLATELET COUNT,[1],1218 x10E3/uL
same,ALANINE AMINOTRANSFERASE,[1],53.67 u/L
same,ALBUMIN,[1],4.3 G/DL
same,ALKALINE PHOSPHATASE,[1],358.33 u/L
same,ASPARTATE AMINOTRANSFERASE,[1],87 u/L
same,BLOOD UREA NITROGEN,[1],15 mg/dL
same,CARBON DIOXIDE,[1],26 mmol/L
same,CHLORIDE,[1],102.33 MEQ/L
same,CHOLESTEROL,[1],79.33 mg/dL
same,CREATINE PHOSPHOKINASE,[1],501.33 u/L
same,CREATININE,[1],0.29 mg/dL
same,GLUCOSE,[1],159.67 mg/dL
same,LACTATE DEHYDROGENASE,[1],166 u/L
same,LIPASE,[1],12 u/L
same,PHOSPHORUS,[1],12.7 mg/dL
same,POTASSIUM,[1],6.86 MEQ/L
same,SODIUM,[1],147.77 MEQ/L
same,TOTAL BILIRUBIN,[1],0.2 mg/dL
same,TOTAL PROTEIN,[1],6.23 G/DL
same,URIC ACID,[1],1.63 mg/dL
same,ABSOLUTE BASOPHIL,[2],0 CELLS/uL
same,ABSOLUTE EOSINOPHIL,[2],120.33 CELLS/uL
same,ABSOLUTE LYMPHOCYTE,[2],14708 CELLS/uL
same,ABSOLUTE MONOCYTE,[2],625.67 CELLS/uL
same,ABSOLUTE SEGMENTED NEUTROPHIL,[2],879.33 CELLS/uL
same,BASOPHIL,[2],0%
same,EOSINOPHIL,[2],0.67%
same,ERYTHROCYTE COUNT,[2],5.55 x10E6/uL
same,HEMATOCRIT,[2],36.7%
same,HEMOGLOBIN,[2],13.53 G/DL
same,LEUKOCYTE COUNT,[2],16.33 x10E3/uL
same,LYMPHOCYTE,[2],90.33%
same,MEAN CORPUSCULAR HEMOGLOBIN,[2],24.4 pg
same,MEAN CORPUSCULAR HEMOGLOBIN CONCENTRATION,[2],36.9 G/DL
same,MEAN CORPUSCULAR VOLUME,[2],66.07 fL
same,MONOCYTE,[2],3.67%
same,NEUTROPHIL,[2],5.33%
same,NUCLEATED RED BLOOD CELLS,[2],0 /100WBC
same,PLATELET COUNT,[2],1137 x10E3/uL
same,ALANINE AMINOTRANSFERASE,[2],56.67 u/L
same,ALBUMIN,[2],4.33 G/DL
same,ALKALINE PHOSPHATASE,[2],375 u/L
same,ASPARTATE AMINOTRANSFERASE,[2],83.67 u/L
same,BLOOD UREA NITROGEN,[2],15.33 mg/dL
same,CARBON DIOXIDE,[2],22.67 mmol/L
same,CHLORIDE,[2],102.67 MEQ/L
same,CHOLESTEROL,[2],87.33 mg/dL
same,CREATINE PHOSPHOKINASE,[2],282.67 u/L
same,CREATININE,[2],0.27 mg/dL
same,GLUCOSE,[2],153.67 mg/dL
same,LACTATE DEHYDROGENASE,[2],140.67 u/L
same,LIPASE,[2],11 u/L
same,PHOSPHORUS,[2],11.4 mg/dL
same,POTASSIUM,[2],6.06 MEQ/L
same,SODIUM,[2],146.67 MEQ/L
same,TOTAL BILIRUBIN,[2],0.3 mg/dL
same,TOTAL PROTEIN,[2],6.4 G/DL
same,URIC ACID,[2],1.07 mg/dL
same,ABSOLUTE BASOPHIL,[3],0 CELLS/uL
same,ABSOLUTE EOSINOPHIL,[3],65.67 CELLS/uL
same,ABSOLUTE LYMPHOCYTE,[3],13484.33 CELLS/uL
same,ABSOLUTE MONOCYTE,[3],234.33 CELLS/uL
same,ABSOLUTE SEGMENTED NEUTROPHIL,[3],1215.67 CELLS/uL
same,BASOPHIL,[3],0%
same,EOSINOPHIL,[3],0.33%
same,ERYTHROCYTE COUNT,[3],5.37 x10E6/uL
same,HEMATOCRIT,[3],34.63%
same,HEMOGLOBIN,[3],12.87 G/DL
same,LEUKOCYTE COUNT,[3],15 x10E3/uL
same,LYMPHOCYTE,[3],90%
same,MEAN CORPUSCULAR HEMOGLOBIN,[3],23.93 pg
same,MEAN CORPUSCULAR HEMOGLOBIN CONCENTRATION,[3],37.17 G/DL
same,MEAN CORPUSCULAR VOLUME,[3],64.43 fL
same,MONOCYTE,[3],1.67%
same,NEUTROPHIL,[3],8%
same,NUCLEATED RED BLOOD CELLS,[3],0 /100WBC
same,PLATELET COUNT,[3],960.33 x10E3/uL
same,ALANINE AMINOTRANSFERASE,[3],55.33 u/L
same,ALBUMIN,[3],4.07 G/DL
same,ALKALINE PHOSPHATASE,[3],330.67 u/L
same,ASPARTATE AMINOTRANSFERASE,[3],74.33 u/L
same,BLOOD UREA NITROGEN,[3],17.33 mg/dL
same,CARBON DIOXIDE,[3],25.67 mmol/L
same,CHLORIDE,[3],102 MEQ/L
same,CHOLESTEROL,[3],76 mg/dL
same,CREATINE PHOSPHOKINASE,[3],342.67 u/L
same,CREATININE,[3],0.21 mg/dL
same,GLUCOSE,[3],165.33 mg/dL
same,LACTATE DEHYDROGENASE,[3],152.67 u/L
same,LIPASE,[3],9.67 u/L
same,PHOSPHORUS,[3],12.4 mg/dL
same,POTASSIUM,[3],6.83 MEQ/L
same,SODIUM,[3],143.67 MEQ/L
same,TOTAL BILIRUBIN,[3],0.13 mg/dL
same,TOTAL PROTEIN,[3],6.23 G/DL
same,URIC ACID,[3],1.8 mg/dL
same,ABSOLUTE BASOPHIL,[4],0 CELLS/uL
same,ABSOLUTE EOSINOPHIL,[4],0 CELLS/uL
same,ABSOLUTE LYMPHOCYTE,[4],18795 CELLS/uL
same,ABSOLUTE MONOCYTE,[4],498.33 CELLS/uL
same,ABSOLUTE SEGMENTED NEUTROPHIL,[4],1040 CELLS/uL
same,BASOPHIL,[4],0%
same,EOSINOPHIL,[4],0%
same,ERYTHROCYTE COUNT,[4],5.72 x10E6/uL
same,HEMATOCRIT,[4],34.77%
same,HEMOGLOBIN,[4],13.27 G/DL
same,LEUKOCYTE COUNT,[4],20.33 x10E3/uL
same,LYMPHOCYTE,[4],92.33%
same,MEAN CORPUSCULAR HEMOGLOBIN,[4],23.2 pg
same,MEAN CORPUSCULAR HEMOGLOBIN CONCENTRATION,[4],38.2 G/DL
same,MEAN CORPUSCULAR VOLUME,[4],60.87 fL
same,MONOCYTE,[4],2.67%
same,NEUTROPHIL,[4],5%
same,NUCLEATED RED BLOOD CELLS,[4],0 /100WBC
same,PLATELET COUNT,[4],1209.33 x10E3/uL
same,ALANINE AMINOTRANSFERASE,[4],54.33 u/L
same,ALBUMIN,[4],4.23 G/DL
same,ALKALINE PHOSPHATASE,[4],290 u/L
same,ASPARTATE AMINOTRANSFERASE,[4],83.67 u/L
same,BLOOD UREA NITROGEN,[4],19.33 mg/dL
same,CARBON DIOXIDE,[4],24.33 mmol/L
same,CHLORIDE,[4],105.67 MEQ/L
same,CHOLESTEROL,[4],75.33 mg/dL
same,CREATINE PHOSPHOKINASE,[4],517 u/L
same,CREATININE,[4],0.21 mg/dL
same,GLUCOSE,[4],155 mg/dL
same,LACTATE DEHYDROGENASE,[4],338.33 u/L
same,LIPASE,[4],9.67 u/L
same,PHOSPHORUS,[4],12.17 mg/dL
same,POTASSIUM,[4],7.45 MEQ/L
same,SODIUM,[4],147 MEQ/L
same,TOTAL BILIRUBIN,[4],0.17 mg/dL
same,TOTAL PROTEIN,[4],6.23 G/DL
same,URIC ACID,[4],2.07 mg/dL
